Consider seven compounds from paper PMC11054282, “Structural Investigations on 2-Amidobenzimidazole Derivatives as New Inhibitors of Protein Kinase CK1 Delta” (Pharmaceuticals, 2024).

Data set [1] has as its target T1, truncated CK1δ (Homo sapiens, UniProt P48730).
T1 construct: truncated CK1δ, recombinant human, GST-tagged, aa 1-294, Merck Millipore; GST; purchased Merck Millipore, Merck KGaA, Darmstadt, Germany
T1 sequence (P48730 1-294): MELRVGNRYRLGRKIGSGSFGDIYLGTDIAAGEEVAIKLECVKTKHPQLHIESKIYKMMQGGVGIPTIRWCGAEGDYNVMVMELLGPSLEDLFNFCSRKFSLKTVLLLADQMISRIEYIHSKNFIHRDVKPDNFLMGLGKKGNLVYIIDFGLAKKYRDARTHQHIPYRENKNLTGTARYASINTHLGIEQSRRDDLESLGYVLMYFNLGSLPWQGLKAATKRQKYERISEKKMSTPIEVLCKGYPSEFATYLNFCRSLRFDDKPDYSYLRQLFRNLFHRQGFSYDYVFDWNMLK
Kind of data set: CK1δ luminescent kinase assay (Kinase Glo kit). The data set is classed as biochemical. The note with it: truncated recombinant human CK1δ (aa 1-294), casein substrate, 2 μM ATP; mean ± SE of three independent experiments in duplicate. The protocol: The newly synthesized derivatives 1–32 were tested on truncated CK1δ using the luminescent kinase assay Kinase Glo® KIT (Promega Italy S.r.l., Milan, Italy), and the results are reported in Table 1 and Table 2. Derivatives were tested at a fixed dose of 40 μM; then, those showing a residual kinase activity percentage lower than 50% were tested at 10 μM.
The inhibitory activity of synthesized compounds on CK1δ has been carried out following a procedure for a luminescence-based assay (KinaseGlo® kit, Promega Italy Srl, Milan, Italy) already reported in the literature. Luminescent assays were performed in white 96-well plates in a 40 μL final volume. The buffer used is a milliq water solution of 50 mM HEPES (pH 7.5), 1 mM EDTA, 1 mM EGTA, and 15 mM MgCl2. In a typical assay, 10 μL of inhibitor solution (desired concentrations were obtained by diluting in buffer a starting 10 mM solution in DMSO) and 10 μL of enzyme solution (truncated CK1δ, recombinant human, GST-tagged, aa 1-294, Merck Millipore, Merck KGaA, Darmstadt, Germany) were added to the well, followed by 20 μL of assay buffer containing casein substrate (casein solution from bovine milk, 5% in water, Sigma-Aldrich, Merck KGaA, Darmstadt, Germany) and ATP, at a final concentration of 0.05% and 2 μM, respectively. The final enzyme concentration was 6.5 nM. […] After 60 min of incubation at 30 °C, the enzymatic reactions were stopped with the addition of 40 μL of KinaseGlo reagent (Promega Italy Srl, Milan, Italy). The luminescence signal (relative light unit, RLU) was recorded after 10 min at 25 °C using a Tecan Infinite M100. […] IC50 values were evaluated using ten different inhibitor concentrations ranging from 100 to 0.026 μM. Data were analyzed using Excel and GraphPad Prism software (version 8.0).

Data set [2] has as its system CK1δ. The note with it: cited from earlier work.
Data set [3] has as its system CK1ε. The note with it: cited from earlier work.

Values joined by “and” are separate entries in the source; they are usually repeats but may differ in a detail not shown here. Identical values can stand only once. Like-named read-outs stand apart in the source and are kept apart here.

In the case of `O=C(Cc1cc[nH]n1)Nc1nc2cc(-n3cncn3)ccc2[nH]1` [Compound 30, N-(5(6)-(1H-1,2,4-triazol-1-yl)-1H-benzimidazol-2-yl)(1H-pyrazol-3(5)-yl)acetamide], the melting point was in the range of 269 to 271 °C. In data set [1], the IC50 is < 15000 nM and 2590 nM. `O=C(Cc1cc[nH]n1)Nc1nc2cc(-c3nnn[nH]3)ccc2[nH]1` [Compound 31, N-(5(6)-(1H-tetrazol-5-yl)-1H-benzimidazol-2-yl)(1H-pyrazol-3(5)-yl)acetamide] yielded a melting point greater than 300 °C. In data set [1], the IC50 was < 15000 nM and 1540 nM. Turning to `COc1ccc(/C=C/C(=O)Nc2cc(-c3nc(SC)[nH]c3-c3ccc(F)cc3)ccn2)c(OC)c1` [III], the IC50 in data set [2] (compound III, Figure 1, read-out: CK1δ IC50) is 4 nM; in data set [3] (compound III, Figure 1), 73 nM. Turning to `COc1ccc(/C=C/C(=O)Nc2cc(-c3c(-c4ccc(F)cc4)noc3C(C)C)ccn2)c(OC)c1` [II], the IC50 in data set [2] (compound II, Figure 1, read-out: CK1δ IC50) is 33 nM; in data set [3] (compound II, Figure 1), 2520 nM. Turning to `Fc1cccc(-n2cnc3c(NCc4nc5ccc(Cl)cc5[nH]4)nc(N4CCNCC4)nc32)c1` [IV], the IC50 in data set [2] (compound IV (SR 2890), Figure 1, read-out: CK1δ IC50) was 5 nM.

Regarding `Nc1nccc(-c2c(-c3ccc(F)cc3)ncn2C2CCCCC2)n1` [PF-670462], the IC50 in data set [2] (PF-670462, read-out: CK1δ IC50) is […]; in data set [2] (PF-670462 as positive control, value in the method section, read-out: IC50), […]; in data set [3] (PF-670462) it was […]. As for `O=C(Nc1nc2cc(C(F)(F)F)ccc2[nH]1)c1csc(NC(=O)c2ccccc2OC(F)(F)F)n1` [V], the IC50 in data set [2] (Bischof-5, Figure 2, read-out: CK1δ IC50) was […].
